Assay results as given in article PMC11705217, “Substrate preference, RNA binding and active site versatility of Stenotrophomonas maltophilia nuclease SmNuc1, explained by a structural study” (The Febs Journal, 2024).

Target: T1, SmNuc1 (SmNuc1WT) (Stenotrophomonas maltophilia, UniProt B2FSF8)
T1 construct: gene Smlt3806; mature enzyme of 246 residues, 28 kDa, N-terminal Trp27 (native signal removed, expressed with MalE signal peptide), C-terminal His-tag kept, pET303/CT-His, E. coli Lemo21(DE3); three Zn2+ in active site
Assay: in crystallo cleavage (crystal soak, […]), X-ray structure shows product […]'-GMP
Type: biochemical
Conditions: pH 6.5; only product 5'-GMP seen in structure 9EMG

Nc1nc2c(ncn2[C@@H]2O[C@@H]3COP(=O)(O)O[C@H]4[C@@H](O)[C@H](n5cnc6c(=O)[nH]c(N)nc65)O[C@@H]4COP(=O)(O)O[C@H]3[C@H]2O)c(=O)[nH]1 [c‐di‐GMP]
in crystallo cleavage (crystal soak, 5 mM), X-ray structure shows product 5'-GMP: c‐di‐GMP was soaked into a crystal of SmNuc1, resulting in the SmNuc1:GMP* structure
